# Measurements from patent US8293705B2, “HCV protease inhibitors and uses thereof” (Avila Therapeutics, Inc., priority 2007, dated 2012).
# Experiments:
# [1] = target: T1, HCV NS3/4A 1b protease D168A (Hepatitis C virus genotype 1b, UniProt Q9WMX2, D1194A); experiment: HCV protease FRET assay (IC50_APP), Example 16; type: biochemical
# T1 construct: 10× stocks of NS3/4A protease enzyme from Bioenza (Mountain View, Calif.); purchased Bioenza (Mountain View, Calif.)
# Description: (§1) The following protocol was used to generate “apparent” IC50 (IC50 APP) values as depicted in Table 6, below. […] 5 μL of each enzyme were added to Corning (#3575) 384-well, black, microtiter plates (Corning, N.Y.) after spotting a 0.5 μL volume of 50% DMSO and serially diluted compounds prepared in 50% DMSO. Protease reactions were immediately started after enzyme addition with the addition of 45 μL of the FRET substrate and monitored for 60-90 minutes at λex485/λem520 in a Synergy^4 plate reader from BioTek (Winooski, Vt.). At the conclusion of each assay, progress curves from each well were examined for linear reaction kinetics and fit statistics (R^2, 95% confidence intervals, absolute sum of squares).
# (§2) The compound numbers correspond to the compound numbers in Table 3. […] ;
# [2] = target: T2, HCV NS3/4A 1b protease A156T (Hepatitis C virus genotype 1b, UniProt Q9WMX2, A1182T); experiment: HCV protease FRET assay (IC50_APP), Example 16; type: biochemical
# T2 construct: 10× stocks of NS3/4A protease enzyme from Bioenza (Mountain View, Calif.); purchased Bioenza (Mountain View, Calif.)
# Description: as §1, §2
# [3] = target: T3, HCV NS3/4A 1b protease wild type (Hepatitis C virus genotype 1b, UniProt Q9WMX2); experiment: HCV protease FRET assay (IC50_APP), Example 16; type: biochemical
# T3 construct: 10× stocks of NS3/4A protease enzyme from Bioenza (Mountain View, Calif.); purchased Bioenza (Mountain View, Calif.)
# Description: as §1, §2
# [4] = system: HCV RNA replicon in cell line ET (luc-ubi-neo/ET), human Huh7 hepatoma; experiment: HCV RNA replicon assay, Example 14 Method A; type: cell-based; conditions: Hepatitis C virus, Huh-7, assay of Example 14, 72 hr; for IC50: read-out: Inhibition, Replicon (IC50); for IC90: read-out: Inhibition, Replicon, IC90 value
# Description: The compounds were assayed to evaluate the antiviral activity and cytotoxicity of compounds in vitro using HCV RNA replicons. This assay used the cell line ET (luc-ubi-neo/ET), which is a human Huh7 hepatoma cell line that contains an HCV RNA replicon with a stable luciferase (Luc) reporter and three cell culture-adaptive mutations. […]
# The ET cell line was grown in Dulbecco's modified essential media (DMEM), 10% fetal bovine serum (FBS), 1% penicillin-streptomycin (pen-strep), 1% glutamine, 250 μg/mL G418 in a 5% CO2 incubator at 37° C. All cell culture reagents were obtained from Mediatech (Manassas, Va.). Cells were trypsinized (1% trypsin:EDTA) and plated out at 5×10^3 cells/well in white 96-well assay plates (Costar) dedicated to cell number (cytotoxicity) or antiviral activity assessments. Drugs were added at six 3-fold concentrations each and the assay was run in DMEM, 5% FBS, 1% pen-strep, 1% glutamine. Human interferon alpha-2b (PBL Biolabs, New Brunswick, N.J.) was included in each run as a positive control compound. Cells were processed 72 hr post drug addition when the cells are still subconfluent. Antiviral activity was measured by analyzing replicon-derived luciferase activity using the Steady-Glo Luciferase Assay System (Promega, Madison, Wis.) according to manufacturer's instruction. The number of cells in each well was determined by CytoTox-1 reagent (Promega). Compound profile was derived by calculating applicable EC50 (effective concentration inhibiting virus replication by 50%), EC90 (effective concentration inhibiting virus replication by 90%), IC50 (concentration decreasing cell viability by 50%) and SI50 (selective index: […]) values.
# [5] = target: T4, HCV NS3/4A wild type (Hepatitis C virus genotype 1b, UniProt Q9WMX2); experiment: Mass spectrometric analysis of covalent modification (MALDI-TOF); type: binding; conditions: 10× excess of test compound to protein; for Covalent modification of HCV NS3/4A wild type: MALDI-TOF
# T4 construct: HCV NS3/4A wild type (wt) was incubated for 1 hr at a 10× fold access of test compound to protein; purchased Bioenza, Calif
# Description: Mass spectrometric analysis of HCV wild type or HCV variant C159S in the presence of test compound is performed. 100 pmols of HCV wild type (Bioenza, Calif.) is incubated with test compound for 1 hr and 3 hrs at 10-fold access of test compound to protein. 1 ul aliquots of the samples (total volume of 4.24 ul) are diluted with 10 ul of 0.1% TFA prior to micro C4 ZipTipping directly onto the MALDI target using Sinapinic acid as the desorption matrix (10 mg/mL in 0.1% TFA:Acetonitrile 50:50). Analyses are performed on a Shimadzu Biotech Axima TOF2 (Shimadzu Instruments) matrix-assisted-laser desorption/ionization Time-of-Flight (MALDI-TOF) mass spectrometer. The same procedure is carried out on 100 pmols of HCV C159S mutant of HCV protease for 3 hrs at 10-fold excess of test compound to protein.
# As depicted in FIGS. 1 and 2, mass spectrometric analysis of HCV wild type in the presence of test compounds I-1 and I-25 was performed using the following protocol: HCV NS3/4A wild type (wt) was incubated for 1 hr at a 10× fold access of test compound to protein. 2 ul aliquots of the samples were diluted with 10 ul of 0.1% TFA prior to micro C4 ZipTipping directly onto the MALDI target using Sinapinic acid as the desorption matrix (10 mg/ml in 0.1% TFA:Acetonitrile 50:50). For intact protein mass measurement the instrument was set in linear mode using a pulsed extraction setting of 24,500 and apomyoglobin as the standard to calibrate the instrument.
# [6] = target: T5, HCV NS3/4A 1b protease R155K (Hepatitis C virus genotype 1b, UniProt Q9WMX2, R1181K); experiment: HCV protease FRET assay (IC50_APP), Example 16; type: biochemical; conditions: reaction started immediately after enzyme addition, read-out: Inhibition (apparent IC50, IC50_APP), HCV R155K
# T5 construct: 10× stocks of NS3/4A protease enzyme from Bioenza (Mountain View, Calif.); purchased Bioenza (Mountain View, Calif.)
# Description: as §1, §2
Compound,IC50 [1],IC50 [2],IC50 [3],IC50 [4],IC90 [4],Covalent modification of HCV NS3/4A wild type [5],IC50 [6],Mass increase of new protein species vs protein with no compound ([5]; 1 hr)
"C=C[C@@H]1C[C@]1(NC(=O)[C@@H]1C[C@@H](OC(=O)N2Cc3cccc(F)c3C2)CN1C(=O)[C@H](CNS(=O)(=O)C=C)NC(=O)OC(C)(C)C)C(=O)NS(=O)(=O)C1CC1 [Compound I-2, (3R,5S)-1-((S)-2-(tert-butoxycarbonylamino)-3-(vinylsulfonamido)propanoyl)-5-((1R,2S)-1-(cyclopropylsulfonylcarbamoyl)-2-vinylcyclopropylcarbamoyl)pyrrolidin-3-yl 4-fluoroisoindoline-2-carboxylate]",< 10 nM,< 10 nM,< 10 nM,10 to 100 nM,100 to 1000 nM,measurable covalent modification,–,–
"C=CC(=O)NCC[C@H](NC(=O)OC(C)(C)C)C(=O)N1C[C@H](OC(=O)N2Cc3cccc(F)c3C2)C[C@H]1C(=O)N[C@]1(C(=O)NS(=O)(=O)C2CC2)C[C@H]1C=C [Compound I-5, (3R,5S)-1-((S)-4-acrylamido-2-(tert-butoxycarbonylamino)butanoyl)-5-((1R,2S)-1-(cyclopropylsulfonylcarbamoyl)-2-vinylcyclopropylcarbamoyl)pyrrolidin-3-yl 4-fluoroisoindoline-2-carboxylate]",100 to 1000 nM,10 to 100 nM,< 10 nM,10 to 100 nM,100 to 1000 nM,measurable covalent modification,–,–
"C=CC(=O)N(C)CC[C@H](NC(=O)OC(C)(C)C)C(=O)N1C[C@H](OC(=O)N2Cc3cccc(F)c3C2)C[C@H]1C(=O)N[C@]1(C(=O)NS(=O)(=O)C2CC2)C[C@H]1C=C [Compound I-13, (3R,5S)-1-((S)-2-(tert-butoxycarbonylamino)-4-(N-methylacrylamido)butanoyl)-5-((1R,2S)-1-(cyclopropylsulfonylcarbamoyl)-2-vinylcyclopropylcarbamoyl)pyrrolidin-3-yl 4-fluoroisoindoline-2-carboxylate]",100 to 1000 nM,< 10 nM,< 10 nM,10 to 100 nM,100 to 1000 nM,measurable covalent modification,–,–
"C=CC(=O)N(C)C[C@H](NC(=O)OC1CCCC1)C(=O)N1C[C@H](OC(=O)N2Cc3cccc(F)c3C2)C[C@H]1C(=O)N[C@]1(C(=O)NS(=O)(=O)C2CC2)C[C@H]1C=C [Compound I-20, (3R,5S)-1-((S)-2-(cyclopentyloxycarbonylamino)-3-(N-methylacrylamido)propanoyl)-5-((1R,2S)-1-(cyclopropylsulfonylcarbamoyl)-2-vinylcyclopropylcarbamoyl)pyrrolidin-3-yl 4-fluoroisoindoline-2-carboxylate]",10 to 100 nM,< 10 nM,< 10 nM,10 to 100 nM,100 to 1000 nM,measurable covalent modification,–,–
"C=C[C@@H]1C[C@]1(NC(=O)[C@@H]1C[C@@H](OC(=O)N2Cc3cccc(F)c3C2)CN1C(=O)[C@@H](NC(=O)OC(C)(C)C)[C@@H](C)OC(=O)/C=C/C)C(=O)NS(=O)(=O)C1CC1 [Compound I-22, (3R,5S)-1-((2S,3R)-3-((E)-but-2-enoyloxy)-2-(tert-butoxycarbonylamino)butanoyl)-5-((1R,2S)-1-(cyclopropylsulfonylcarbamoyl)-2-vinylcyclopropylcarbamoyl)pyrrolidin-3-yl-4-fluoroisoindoline-2-carboxylate]",100 to 1000 nM,10 to 100 nM,< 10 nM,10 to 100 nM,10 to 100 nM,measurable covalent modification,10 to 100 nM,–
"C=C[C@@H]1C[C@]1(NC(=O)[C@@H]1C[C@@H](OC(=O)N2Cc3cccc(F)c3C2)CN1C(=O)[C@H](COC(=O)C(=C)NC(=O)OC(C)(C)C)NC(=O)OC(C)(C)C)C(=O)NS(=O)(=O)C1CC1 [Compound I-23, (3R,5S)-1-((S)-2-(tert-butoxycarbonylamino)-3-(2-(tert-butoxycarbonylamino)acryloyloxy)propanoyl)-5-((1R,2S)-1-(cyclopropylsulfonylcarbamoyl)-2-vinylcyclopropylcarbamoyl)pyrrolidin-3-yl 4-fluoroisoindoline-2-carboxylate]",< 10 nM,< 10 nM,< 10 nM,10 to 100 nM,100 to 1000 nM,measurable covalent modification,–,–
"C=C[C@@H]1C[C@]1(NC(=O)[C@@H]1C[C@@H](OC(=O)N2Cc3cccc(F)c3C2)CN1C(=O)[C@H](CCC(=O)C=C(C)C)NC(=O)OC(C)(C)C)C(=O)NS(=O)(=O)C1CC1 [Compound I-25, (3R,5S)-1-((S)-2-(tert-butoxycarbonylamino)-7-methyl-5-oxooct-6-enoyl)-5-((1R,2S)-4-(cyclopropylsulfonylcarbamoyl)-2-vinylcyclopropylcarbamoyl)pyrrolidin-3-yl 4-fluoroisoindoline-2-carboxylate]",100 to 1000 nM,10 to 100 nM,< 10 nM,< 10 nM,10 to 100 nM,conversion to a new peak,10 to 100 nM,773 Da
C=C[C@@H]1C[C@]1(NC(=O)[C@@H]1CC(OC(=O)N2Cc3cccc(F)c3C2)CN1C(=O)[C@H](CCC(=O)/C=C/C)NC(=O)OC(C)(C)C)C(=O)NS(=O)(=O)C1CC1 (stereo partly shown) [Compound I-26],< 10 nM,< 10 nM,< 10 nM,–,–,measurable covalent modification,–,–
C=C[C@@H]1C[C@]1(NC(=O)[C@@H]1CC(OC(=O)N2Cc3cccc(F)c3C2)CN1C(=O)[C@H](CCC(=O)C(=C)C)NC(=O)OC(C)(C)C)C(=O)NS(=O)(=O)C1CC1 (stereo partly shown) [Compound I-27],< 10 nM,< 10 nM,< 10 nM,10 to 100 nM,100 to 1000 nM,measurable covalent modification,–,–
